According to US9980943B2, “Methods of treating muscular dystrophy” (BOARD OF REGENTS OF THE NEVADA SYSTEM OF HIGHER EDUCATION, …, priority 2013, dated 2018):

Experiments:
Format in all cases: cell-based, mouse
[1] = test system: α7 integrin (LacZ reporter in α7βgal+/− myoblasts); assay: Myoblast α7+/LacZ integrin FDG assay (Burkin assay in myoblasts, 96-well); conditions: 96-well; for Burkin Assay in Myoblasts, signal relative to DMSO: α7+/LacZ myoblasts; for Burkin Assay in Myoblasts, value relative to DMSO: SU9516 analogs, N=3-6
[2] = test system: α7 integrin (LacZ reporter in α7+/LacZ myotubes); assay: Myotube α7 integrin FDG assay (Burkin assay in myotubes, 96-well); conditions: for Burkin Assay in Myotubes, value relative to DMSO: SU9516 analogs, 96-well, N=3-6
[3] = test system: β-galactosidase in CMV-LacZ C2C12 myotubes; assay: CMV-LacZ secondary screen in C2C12 myotubes (β-Gal stabilizing assay); conditions: for CMV-LACZ in Myotubes, signal relative to DMSO: C2C12 CMV-LacZ myotubes, fold relative to DMSO; for CMV-LACZ in Myotubes, value relative to DMSO: SU9516 analogs, C2C12 CMV-LacZ, N=2
How it was run: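 β-gal stabilization was measured in C2C12 myoblasts or myotubes stably transfected with a CMV-driven LacZ construct, using the FDG β-gal assay. Compounds were tested in dose-response at 0.5, 1, 5, 10, 20 and 40 μM, with two replicates per point.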

[4] = test system: β-galactosidase in CMV-LacZ C2C12 myoblasts; assay: CMV-LacZ secondary screen in C2C12 myoblasts (β-Gal stabilizing assay); conditions: for CMV-LACZ in Myoblasts (β-galactosidase activity relative to DMSO): CMV-LacZ C2C12 myoblasts; for CMV-LACZ in Myoblasts, value relative to DMSO: SU9516 analogs, C2C12 CMV-LacZ, N=2
How it was run: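 β-Gal level was the read-out, measured in a clonal C2C12 line expressing LacZ from a CMV promoter. Dose-response curves used six concentrations, 0.5 μM up to 40 μM, with duplicate points.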

Compound: Cc1ccccc1S(=O)(=O)N1C[C@H]2CON(C)[C@H]2C[C@H]1c1cccc(-c2ccccc2)c1 [MLS002694363-01]
- Burkin Assay in Myoblasts, signal relative to DMSO ([1]; 0.5 uM): 1.062
- Burkin Assay in Myoblasts, signal relative to DMSO ([1]; 1 uM): 1.061
- Burkin Assay in Myoblasts, signal relative to DMSO ([1]; 5 uM): 1.045
- Burkin Assay in Myoblasts, signal relative to DMSO ([1]; 10 uM): 1.09
- Burkin Assay in Myoblasts, signal relative to DMSO ([1]; 20 uM): 0.7581
- Burkin Assay in Myoblasts, signal relative to DMSO ([1]; 40 uM): 0.7066
- Burkin Assay in Myotubes, α7 integrin LacZ reporter signal relative to DMSO ([2]; 0.5 uM): 0.9909
- Burkin Assay in Myotubes, α7 integrin LacZ reporter signal relative to DMSO ([2]; 1 uM): 1.01
- Burkin Assay in Myotubes, α7 integrin LacZ reporter signal relative to DMSO ([2]; 5 uM): 0.9178
- Burkin Assay in Myotubes, α7 integrin LacZ reporter signal relative to DMSO ([2]; 10 uM): 0.8787
- Burkin Assay in Myotubes, α7 integrin LacZ reporter signal relative to DMSO ([2]; 20 uM): 0.6694
- Burkin Assay in Myotubes, α7 integrin LacZ reporter signal relative to DMSO ([2]; 40 uM): 0.4108
- CMV-LACZ in Myotubes, signal relative to DMSO ([3]; 0.5 uM): 1.0695
- CMV-LACZ in Myotubes, signal relative to DMSO ([3]; 1 uM): 1.1800
- CMV-LACZ in Myotubes, signal relative to DMSO ([3]; 5 uM): 1.1420
- CMV-LACZ in Myotubes, signal relative to DMSO ([3]; 10 uM): 0.9775
- CMV-LACZ in Myotubes, signal relative to DMSO ([3]; 20 uM): 0.9870
- CMV-LACZ in Myotubes, signal relative to DMSO ([3]; 40 uM): 0.7460
- CMV-LACZ in Myoblasts (β-galactosidase activity relative to DMSO) ([4]; 0.5 uM): 1.1110
- CMV-LACZ in Myoblasts (β-galactosidase activity relative to DMSO) ([4]; 1 uM): 1.2840
- CMV-LACZ in Myoblasts (β-galactosidase activity relative to DMSO) ([4]; 5 uM): 0.7616
- CMV-LACZ in Myoblasts (β-galactosidase activity relative to DMSO) ([4]; 10 uM): 1.0392
- CMV-LACZ in Myoblasts (β-galactosidase activity relative to DMSO) ([4]; 20 uM): 1.0123
- CMV-LACZ in Myoblasts (β-galactosidase activity relative to DMSO) ([4]; 40 uM): 0.5698

Compound: COc1ccc2c(c1)/C(=C\c1cccc(/C=C3/C(=O)Nc4ccc(OC)cc43)n1)C(=O)N2 [MLS002702497-01]
- Burkin Assay in Myoblasts, value relative to DMSO ([1]; 0.5 uM): 0.7804
- Burkin Assay in Myoblasts, value relative to DMSO ([1]; 1 uM): 0.5545
- Burkin Assay in Myoblasts, value relative to DMSO ([1]; 5 uM): 0.175
- Burkin Assay in Myoblasts, value relative to DMSO ([1]; 10 uM): 0.1888
- Burkin Assay in Myoblasts, value relative to DMSO ([1]; 20 uM): 0.05588
- Burkin Assay in Myoblasts, value relative to DMSO ([1]; 40 uM): 0.04886
- Burkin Assay in Myotubes, value relative to DMSO ([2]; 0.5 uM): 0.8414
- Burkin Assay in Myotubes, value relative to DMSO ([2]; 1 uM): 0.749
- Burkin Assay in Myotubes, value relative to DMSO ([2]; 5 uM): 0.7692
- Burkin Assay in Myotubes, value relative to DMSO ([2]; 10 uM): 0.7814
- Burkin Assay in Myotubes, value relative to DMSO ([2]; 20 uM): 0.4567
- Burkin Assay in Myotubes, value relative to DMSO ([2]; 40 uM): 0.3839
- CMV-LACZ in Myotubes, value relative to DMSO ([3]; 0.5 uM): 1.1181
- CMV-LACZ in Myotubes, value relative to DMSO ([3]; 1 uM): 2.2829
- CMV-LACZ in Myotubes, value relative to DMSO ([3]; 5 uM): 7.0726
- CMV-LACZ in Myotubes, value relative to DMSO ([3]; 10 uM): 6.3598
- CMV-LACZ in Myotubes, value relative to DMSO ([3]; 20 uM): 0.6520
- CMV-LACZ in Myotubes, value relative to DMSO ([3]; 40 uM): 0.6550
- CMV-LACZ in Myoblasts, value relative to DMSO ([4]; 0.5 uM): 0.8643
- CMV-LACZ in Myoblasts, value relative to DMSO ([4]; 1 uM): 1.0213
- CMV-LACZ in Myoblasts, value relative to DMSO ([4]; 5 uM): 2.6344
- CMV-LACZ in Myoblasts, value relative to DMSO ([4]; 10 uM): 3.6076
- CMV-LACZ in Myoblasts, value relative to DMSO ([4]; 20 uM): 0.2593
- CMV-LACZ in Myoblasts, value relative to DMSO ([4]; 40 uM): 0.2779

Compound: O=Nc1c(-c2c(O)[nH]c3ccccc23)[nH]c2ccccc12 [NCGC00015545-02]
- Burkin Assay in Myoblasts, value relative to DMSO ([1]; 0.5 uM): 1.175
- Burkin Assay in Myoblasts, value relative to DMSO ([1]; 1 uM): 1.325
- Burkin Assay in Myoblasts, value relative to DMSO ([1]; 5 uM): 0.596
- Burkin Assay in Myoblasts, value relative to DMSO ([1]; 10 uM): 0.319
- Burkin Assay in Myoblasts, value relative to DMSO ([1]; 20 uM): 0.3086
- Burkin Assay in Myoblasts, value relative to DMSO ([1]; 40 uM): 0.1824
- Burkin Assay in Myotubes, value relative to DMSO ([2]; 0.5 uM): 0.913
- Burkin Assay in Myotubes, value relative to DMSO ([2]; 1 uM): 0.9118
- Burkin Assay in Myotubes, value relative to DMSO ([2]; 5 uM): 0.6921
- Burkin Assay in Myotubes, value relative to DMSO ([2]; 10 uM): 0.5516
- Burkin Assay in Myotubes, value relative to DMSO ([2]; 20 uM): 0.4959
- Burkin Assay in Myotubes, value relative to DMSO ([2]; 40 uM): 0.3519
- CMV-LACZ in Myotubes, value relative to DMSO ([3]; 0.5 uM): 0.8627
- CMV-LACZ in Myotubes, value relative to DMSO ([3]; 1 uM): 0.9536
- CMV-LACZ in Myotubes, value relative to DMSO ([3]; 5 uM): 0.7586
- CMV-LACZ in Myotubes, value relative to DMSO ([3]; 10 uM): 0.5058
- CMV-LACZ in Myotubes, value relative to DMSO ([3]; 20 uM): 0.5490
- CMV-LACZ in Myotubes, value relative to DMSO ([3]; 40 uM): 0.4770
- CMV-LACZ in Myoblasts, value relative to DMSO ([4]; 0.5 uM): 1.0179
- CMV-LACZ in Myoblasts, value relative to DMSO ([4]; 5 uM): 0.9440
- CMV-LACZ in Myoblasts, value relative to DMSO ([4]; 10 uM): 0.8475
- CMV-LACZ in Myoblasts, value relative to DMSO ([4]; 20 uM): 0.2907
- CMV-LACZ in Myoblasts, value relative to DMSO ([4]; 40 uM): 0.2480
